Measured values reported in ChEMBL document CHEMBL3885881, “DrugMatrix”.

Species on record: Rattus norvegicus
Assay: DrugMatrix - Regimen: Daily Repeat
Assay type: toxicity, organism-based, Sprague-Dawley
Set-up: regimen Daily Repeat, gender Male, age 6-8 weeks
Details: in vivo, sc, route subcutaneous, […]; for ABSOLUTE BASOPHIL / ABSOLUTE EOSINOPHIL / ABSOLUTE LYMPHOCYTE / ABSOLUTE MONOCYTE / ABSOLUTE SEGMENTED NEUTROPHIL / BASOPHIL / EOSINOPHIL / ERYTHROCYTE COUNT / HEMATOCRIT / HEMOGLOBIN / LEUKOCYTE COUNT / LYMPHOCYTE / MEAN CORPUSCULAR HEMOGLOBIN / MEAN CORPUSCULAR VOLUME / MONOCYTE / NEUTROPHIL / NUCLEATED RED BLOOD CELLS / PLATELET COUNT: tissue Blood; for ALANINE AMINOTRANSFERASE / ALBUMIN / ALKALINE PHOSPHATASE / ASPARTATE AMINOTRANSFERASE / BLOOD UREA NITROGEN / CARBON DIOXIDE / CHLORIDE / CHOLESTEROL / CREATINE PHOSPHOKINASE / CREATININE / GLUCOSE / LACTATE DEHYDROGENASE / LIPASE / PHOSPHORUS / POTASSIUM / SODIUM / TOTAL BILIRUBIN / TOTAL PROTEIN / URIC ACID: tissue Plasma
[1] = 0 mg/kg, 72 h, dose level Control, time 3 day
[2] = 0 mg/kg, 120 h, dose level Control, time 5 day
[3] = 50 mg/kg, 72 h, dose level Low, time 3 day

CCCCCCCCc1ccc(O)cc1 [4-OCTYLPHENOL]
ABSOLUTE BASOPHIL [1]: 0 CELLS/uL
ABSOLUTE EOSINOPHIL [1]: 0 CELLS/uL
ABSOLUTE LYMPHOCYTE [1]: 9782.33 CELLS/uL
ABSOLUTE MONOCYTE [1]: 114.67 CELLS/uL
ABSOLUTE SEGMENTED NEUTROPHIL [1]: 753 CELLS/uL
BASOPHIL [1]: 0%
EOSINOPHIL [1]: 0%
ERYTHROCYTE COUNT [1]: 5.14 x10E6/uL
HEMATOCRIT [1]: 32.12%
HEMOGLOBIN [1]: 13.13 G/DL
LEUKOCYTE COUNT [1]: 10.65 x10E3/uL
LYMPHOCYTE [1]: 91.83%
MEAN CORPUSCULAR HEMOGLOBIN [1]: 25.83 pg
MEAN CORPUSCULAR VOLUME [1]: 62.43 fL
MONOCYTE [1]: 1%
NEUTROPHIL [1]: 7.17%
NUCLEATED RED BLOOD CELLS [1]: 0.17 /100WBC
PLATELET COUNT [1]: 657.83 x10E3/uL
ALANINE AMINOTRANSFERASE [1]: 60.33 u/L
ALBUMIN [1]: 3.83 G/DL
ALKALINE PHOSPHATASE [1]: 366.33 u/L
ASPARTATE AMINOTRANSFERASE [1]: 104.5 u/L
BLOOD UREA NITROGEN [1]: 12.33 mg/dL
CARBON DIOXIDE [1]: 23.17 mmol/L
CHLORIDE [1]: 96.67 MEQ/L
CHOLESTEROL [1]: 73.17 mg/dL
CREATINE PHOSPHOKINASE [1]: 545.83 u/L
CREATININE [1]: 0.26 mg/dL
GLUCOSE [1]: 144.33 mg/dL
LACTATE DEHYDROGENASE [1]: 147.5 u/L
LIPASE [1]: 9.33 u/L
PHOSPHORUS [1]: 10.83 mg/dL
POTASSIUM [1]: 5.68 MEQ/L
SODIUM [1]: 138.83 MEQ/L
TOTAL BILIRUBIN [1]: 0.17 mg/dL
TOTAL PROTEIN [1]: 5.42 G/DL
URIC ACID [1]: 0.65 mg/dL
ABSOLUTE BASOPHIL [2]: 0 CELLS/uL
ABSOLUTE EOSINOPHIL [2]: 43.33 CELLS/uL
ABSOLUTE LYMPHOCYTE [2]: 12883 CELLS/uL
ABSOLUTE MONOCYTE [2]: 166.83 CELLS/uL
ABSOLUTE SEGMENTED NEUTROPHIL [2]: 1290.17 CELLS/uL
BASOPHIL [2]: 0%
EOSINOPHIL [2]: 0.33%
ERYTHROCYTE COUNT [2]: 5.79 x10E6/uL
HEMATOCRIT [2]: 36.37%
HEMOGLOBIN [2]: 14.17 G/DL
LEUKOCYTE COUNT [2]: 14.38 x10E3/uL
LYMPHOCYTE [2]: 89.17%
MEAN CORPUSCULAR HEMOGLOBIN [2]: 24.48 pg
MEAN CORPUSCULAR VOLUME [2]: 62.83 fL
MONOCYTE [2]: 1.17%
NEUTROPHIL [2]: 9.33%
NUCLEATED RED BLOOD CELLS [2]: 0.5 /100WBC
PLATELET COUNT [2]: 1267.33 x10E3/uL
ALANINE AMINOTRANSFERASE [2]: 53.5 u/L
ALBUMIN [2]: 3.82 G/DL
ALKALINE PHOSPHATASE [2]: 342.33 u/L
ASPARTATE AMINOTRANSFERASE [2]: 83.67 u/L
BLOOD UREA NITROGEN [2]: 13.17 mg/dL
CARBON DIOXIDE [2]: 28.17 mmol/L
CHLORIDE [2]: 101.5 MEQ/L
CHOLESTEROL [2]: 70.83 mg/dL
CREATINE PHOSPHOKINASE [2]: 656.67 u/L
CREATININE [2]: 0.17 mg/dL
GLUCOSE [2]: 171.33 mg/dL
LACTATE DEHYDROGENASE [2]: 169 u/L
LIPASE [2]: 9.17 u/L
PHOSPHORUS [2]: 12.88 mg/dL
POTASSIUM [2]: 6.54 MEQ/L
SODIUM [2]: 141.2 MEQ/L
TOTAL BILIRUBIN [2]: 0.18 mg/dL
TOTAL PROTEIN [2]: 5.68 G/DL
URIC ACID [2]: 2.02 mg/dL
ABSOLUTE BASOPHIL [3]: 0 CELLS/uL
ABSOLUTE EOSINOPHIL [3]: 58 CELLS/uL
ABSOLUTE LYMPHOCYTE [3]: 8002.33 CELLS/uL
ABSOLUTE MONOCYTE [3]: 124.67 CELLS/uL
ABSOLUTE SEGMENTED NEUTROPHIL [3]: 648.33 CELLS/uL
BASOPHIL [3]: 0%
EOSINOPHIL [3]: 0.67%
ERYTHROCYTE COUNT [3]: 5.33 x10E6/uL
HEMATOCRIT [3]: 34.07%
HEMOGLOBIN [3]: 13.23 G/DL
LEUKOCYTE COUNT [3]: 8.83 x10E3/uL
LYMPHOCYTE [3]: 90%
MEAN CORPUSCULAR HEMOGLOBIN [3]: 24.83 pg
MEAN CORPUSCULAR VOLUME [3]: 63.87 fL
MONOCYTE [3]: 1.67%
NEUTROPHIL [3]: 7.67%
NUCLEATED RED BLOOD CELLS [3]: 0 /100WBC
PLATELET COUNT [3]: 876 x10E3/uL
ALANINE AMINOTRANSFERASE [3]: 50.33 u/L
ALBUMIN [3]: 3.9 G/DL
ALKALINE PHOSPHATASE [3]: 340 u/L
ASPARTATE AMINOTRANSFERASE [3]: 88 u/L
BLOOD UREA NITROGEN [3]: 10 mg/dL
CARBON DIOXIDE [3]: 24.67 mmol/L
CHLORIDE [3]: 94 MEQ/L
CHOLESTEROL [3]: 67.33 mg/dL
CREATINE PHOSPHOKINASE [3]: 672.33 u/L
CREATININE [3]: 0.22 mg/dL
GLUCOSE [3]: 130.67 mg/dL
LACTATE DEHYDROGENASE [3]: 143.33 u/L
LIPASE [3]: 9.67 u/L
PHOSPHORUS [3]: 11.07 mg/dL
POTASSIUM [3]: 6.18 MEQ/L
SODIUM [3]: 136.97 MEQ/L
TOTAL BILIRUBIN [3]: 0.1 mg/dL
TOTAL PROTEIN [3]: 5.4 G/DL
URIC ACID [3]: 0.83 mg/dL
